Key:
Experiment in all cases: Eurofins kinase panel
Format in all cases: biochemical
CSK(h) = biological target: T1, CSK(h) (Homo sapiens, UniProt P41240); details: read-out: Inhibition rate (%)
T1 construct: purchased Eurofins (KinaseProfiler)

DCAMKL3(h) = biological target: T2, DCAMKL3(h) (Homo sapiens, UniProt Q9C098); details: read-out: Inhibition rate (%)
T2 construct: purchased Eurofins (KinaseProfiler)
T2 sequence (Q9C098 1-648): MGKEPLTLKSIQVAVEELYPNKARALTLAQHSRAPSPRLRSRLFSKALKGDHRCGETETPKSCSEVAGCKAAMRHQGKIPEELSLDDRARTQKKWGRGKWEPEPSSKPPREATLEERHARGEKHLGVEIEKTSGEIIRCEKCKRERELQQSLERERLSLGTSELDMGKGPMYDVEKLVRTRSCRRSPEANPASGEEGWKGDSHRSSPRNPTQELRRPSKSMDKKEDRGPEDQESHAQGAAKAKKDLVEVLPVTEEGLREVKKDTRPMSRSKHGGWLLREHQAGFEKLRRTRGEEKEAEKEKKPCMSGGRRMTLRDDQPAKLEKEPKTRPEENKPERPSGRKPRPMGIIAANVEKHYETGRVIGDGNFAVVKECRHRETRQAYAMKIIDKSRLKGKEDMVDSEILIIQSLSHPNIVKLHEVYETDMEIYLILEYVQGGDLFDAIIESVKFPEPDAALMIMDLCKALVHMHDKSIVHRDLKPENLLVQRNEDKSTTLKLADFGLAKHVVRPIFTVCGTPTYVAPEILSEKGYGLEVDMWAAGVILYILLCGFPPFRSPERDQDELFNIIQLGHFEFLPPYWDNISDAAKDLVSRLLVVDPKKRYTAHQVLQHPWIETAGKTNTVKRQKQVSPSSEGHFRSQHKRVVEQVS

FGFR4(h) = biological target: T3, FGFR4(h) (Homo sapiens, UniProt P22455); details: read-out: Inhibition rate (%)
T3 construct: purchased Eurofins (KinaseProfiler)
T3 sequence (P22455 22-802): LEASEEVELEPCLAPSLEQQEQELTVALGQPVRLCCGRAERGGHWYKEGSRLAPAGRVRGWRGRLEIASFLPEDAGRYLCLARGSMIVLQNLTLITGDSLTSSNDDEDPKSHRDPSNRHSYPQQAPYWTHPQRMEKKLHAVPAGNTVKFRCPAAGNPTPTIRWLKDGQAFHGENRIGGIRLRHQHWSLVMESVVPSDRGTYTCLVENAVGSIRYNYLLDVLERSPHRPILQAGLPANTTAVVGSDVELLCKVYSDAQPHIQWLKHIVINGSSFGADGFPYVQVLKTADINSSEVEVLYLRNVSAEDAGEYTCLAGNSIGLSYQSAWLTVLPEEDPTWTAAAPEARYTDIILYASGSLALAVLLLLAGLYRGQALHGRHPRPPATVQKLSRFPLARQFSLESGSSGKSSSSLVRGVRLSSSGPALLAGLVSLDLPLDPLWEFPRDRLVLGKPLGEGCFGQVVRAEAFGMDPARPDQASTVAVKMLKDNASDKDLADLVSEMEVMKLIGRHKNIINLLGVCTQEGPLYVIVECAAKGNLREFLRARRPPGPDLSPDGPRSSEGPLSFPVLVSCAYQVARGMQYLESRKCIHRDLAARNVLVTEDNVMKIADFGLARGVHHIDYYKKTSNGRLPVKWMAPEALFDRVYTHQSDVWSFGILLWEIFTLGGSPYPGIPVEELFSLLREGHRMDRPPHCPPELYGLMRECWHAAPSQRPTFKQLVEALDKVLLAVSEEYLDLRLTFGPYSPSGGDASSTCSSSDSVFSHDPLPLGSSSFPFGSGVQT

Fms(h) = Fms(h) (Homo sapiens, UniProt P07333)
Sequence of Fms(h) (P07333 20-972): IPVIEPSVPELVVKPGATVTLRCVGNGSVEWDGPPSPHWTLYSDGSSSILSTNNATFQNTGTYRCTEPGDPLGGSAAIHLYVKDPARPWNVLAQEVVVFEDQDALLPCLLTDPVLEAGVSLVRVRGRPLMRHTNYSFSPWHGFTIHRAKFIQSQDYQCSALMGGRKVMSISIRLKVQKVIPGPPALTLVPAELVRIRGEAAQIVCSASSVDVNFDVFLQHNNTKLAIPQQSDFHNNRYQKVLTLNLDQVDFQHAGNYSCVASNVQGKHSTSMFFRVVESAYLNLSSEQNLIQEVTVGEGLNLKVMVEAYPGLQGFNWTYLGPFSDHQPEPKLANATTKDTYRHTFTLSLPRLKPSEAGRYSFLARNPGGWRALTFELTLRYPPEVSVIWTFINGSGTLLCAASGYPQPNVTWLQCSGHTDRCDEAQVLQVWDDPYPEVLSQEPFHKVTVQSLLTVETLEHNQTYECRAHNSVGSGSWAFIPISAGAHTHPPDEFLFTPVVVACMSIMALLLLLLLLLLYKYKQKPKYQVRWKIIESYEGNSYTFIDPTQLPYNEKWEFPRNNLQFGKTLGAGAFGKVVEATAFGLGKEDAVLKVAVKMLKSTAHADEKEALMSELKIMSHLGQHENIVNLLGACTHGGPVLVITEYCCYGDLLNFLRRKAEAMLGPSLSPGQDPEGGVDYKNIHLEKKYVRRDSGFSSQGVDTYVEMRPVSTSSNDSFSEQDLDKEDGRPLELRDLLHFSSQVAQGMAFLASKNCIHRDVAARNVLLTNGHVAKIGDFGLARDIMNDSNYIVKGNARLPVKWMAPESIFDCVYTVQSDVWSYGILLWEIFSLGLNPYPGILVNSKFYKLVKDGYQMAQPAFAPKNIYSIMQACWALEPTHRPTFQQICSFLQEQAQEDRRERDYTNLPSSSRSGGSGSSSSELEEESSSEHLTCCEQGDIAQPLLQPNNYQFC

NEK9(h) = biological target: T4, NEK9(h) (Homo sapiens, UniProt Q8TD19); details: read-out: Inhibition rate (%)
T4 construct: purchased Eurofins (KinaseProfiler)
T4 sequence (Q8TD19 1-979): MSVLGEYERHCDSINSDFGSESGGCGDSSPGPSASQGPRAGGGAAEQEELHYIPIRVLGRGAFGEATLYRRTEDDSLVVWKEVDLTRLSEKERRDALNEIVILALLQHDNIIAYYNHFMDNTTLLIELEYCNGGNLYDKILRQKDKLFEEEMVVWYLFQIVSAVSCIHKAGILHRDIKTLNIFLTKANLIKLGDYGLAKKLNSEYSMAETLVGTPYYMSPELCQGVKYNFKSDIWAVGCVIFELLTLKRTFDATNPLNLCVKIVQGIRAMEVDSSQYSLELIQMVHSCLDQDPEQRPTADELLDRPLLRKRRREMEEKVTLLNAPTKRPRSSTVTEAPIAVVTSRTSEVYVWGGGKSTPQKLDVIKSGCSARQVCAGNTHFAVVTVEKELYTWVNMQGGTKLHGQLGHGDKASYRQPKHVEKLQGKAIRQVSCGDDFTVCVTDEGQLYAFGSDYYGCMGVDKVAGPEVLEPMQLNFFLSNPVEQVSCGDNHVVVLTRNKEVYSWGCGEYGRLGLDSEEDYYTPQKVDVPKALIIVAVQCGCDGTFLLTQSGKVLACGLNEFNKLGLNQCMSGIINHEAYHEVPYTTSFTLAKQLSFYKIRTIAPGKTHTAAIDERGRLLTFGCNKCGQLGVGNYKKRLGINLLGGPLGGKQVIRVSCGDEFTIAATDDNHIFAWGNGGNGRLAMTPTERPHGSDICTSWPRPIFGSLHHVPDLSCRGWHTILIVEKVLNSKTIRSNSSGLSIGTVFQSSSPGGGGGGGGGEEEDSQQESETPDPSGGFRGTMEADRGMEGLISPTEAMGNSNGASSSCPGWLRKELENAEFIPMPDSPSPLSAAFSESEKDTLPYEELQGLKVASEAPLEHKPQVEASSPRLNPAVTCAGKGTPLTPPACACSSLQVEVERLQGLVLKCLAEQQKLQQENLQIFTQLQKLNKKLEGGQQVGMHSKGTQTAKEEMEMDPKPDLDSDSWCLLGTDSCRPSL

PDGFRβ(h) = biological target: T5, PDGFRβ(h) (Homo sapiens, UniProt P09619); details: read-out: Inhibition rate (%)
T5 construct: purchased Eurofins (KinaseProfiler)
T5 sequence (P09619 33-1106): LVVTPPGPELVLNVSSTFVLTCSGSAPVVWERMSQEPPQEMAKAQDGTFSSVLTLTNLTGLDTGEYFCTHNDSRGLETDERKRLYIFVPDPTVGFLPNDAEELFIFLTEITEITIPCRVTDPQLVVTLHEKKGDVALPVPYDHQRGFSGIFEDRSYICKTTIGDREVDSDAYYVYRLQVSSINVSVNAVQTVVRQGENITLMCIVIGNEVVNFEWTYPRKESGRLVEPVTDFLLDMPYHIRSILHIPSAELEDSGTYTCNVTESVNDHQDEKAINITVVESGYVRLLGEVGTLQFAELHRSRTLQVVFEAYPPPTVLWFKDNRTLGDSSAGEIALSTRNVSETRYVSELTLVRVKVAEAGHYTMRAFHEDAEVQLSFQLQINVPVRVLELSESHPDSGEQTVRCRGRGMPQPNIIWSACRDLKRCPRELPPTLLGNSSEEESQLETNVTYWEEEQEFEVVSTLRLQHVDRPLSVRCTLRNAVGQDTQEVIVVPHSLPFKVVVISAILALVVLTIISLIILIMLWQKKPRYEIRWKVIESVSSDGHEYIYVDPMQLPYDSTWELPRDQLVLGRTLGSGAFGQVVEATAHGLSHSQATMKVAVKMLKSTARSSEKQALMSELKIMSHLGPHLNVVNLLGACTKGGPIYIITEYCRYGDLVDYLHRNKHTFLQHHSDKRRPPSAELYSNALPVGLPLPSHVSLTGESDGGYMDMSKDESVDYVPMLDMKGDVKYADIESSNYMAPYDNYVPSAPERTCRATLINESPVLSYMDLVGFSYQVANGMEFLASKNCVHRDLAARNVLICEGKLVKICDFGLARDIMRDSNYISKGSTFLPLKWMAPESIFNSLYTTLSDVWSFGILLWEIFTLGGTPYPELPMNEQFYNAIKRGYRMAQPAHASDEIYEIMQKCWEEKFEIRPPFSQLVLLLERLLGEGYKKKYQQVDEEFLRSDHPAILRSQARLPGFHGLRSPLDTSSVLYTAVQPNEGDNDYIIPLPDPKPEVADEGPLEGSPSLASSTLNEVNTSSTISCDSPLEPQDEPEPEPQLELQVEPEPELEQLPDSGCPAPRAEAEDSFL

Rsk2(h) = biological target: T6, Rsk2(h) (Homo sapiens, UniProt P51812); details: read-out: Inhibition rate (%)
T6 construct: purchased Eurofins (KinaseProfiler)
T6 sequence (P51812 whole entry): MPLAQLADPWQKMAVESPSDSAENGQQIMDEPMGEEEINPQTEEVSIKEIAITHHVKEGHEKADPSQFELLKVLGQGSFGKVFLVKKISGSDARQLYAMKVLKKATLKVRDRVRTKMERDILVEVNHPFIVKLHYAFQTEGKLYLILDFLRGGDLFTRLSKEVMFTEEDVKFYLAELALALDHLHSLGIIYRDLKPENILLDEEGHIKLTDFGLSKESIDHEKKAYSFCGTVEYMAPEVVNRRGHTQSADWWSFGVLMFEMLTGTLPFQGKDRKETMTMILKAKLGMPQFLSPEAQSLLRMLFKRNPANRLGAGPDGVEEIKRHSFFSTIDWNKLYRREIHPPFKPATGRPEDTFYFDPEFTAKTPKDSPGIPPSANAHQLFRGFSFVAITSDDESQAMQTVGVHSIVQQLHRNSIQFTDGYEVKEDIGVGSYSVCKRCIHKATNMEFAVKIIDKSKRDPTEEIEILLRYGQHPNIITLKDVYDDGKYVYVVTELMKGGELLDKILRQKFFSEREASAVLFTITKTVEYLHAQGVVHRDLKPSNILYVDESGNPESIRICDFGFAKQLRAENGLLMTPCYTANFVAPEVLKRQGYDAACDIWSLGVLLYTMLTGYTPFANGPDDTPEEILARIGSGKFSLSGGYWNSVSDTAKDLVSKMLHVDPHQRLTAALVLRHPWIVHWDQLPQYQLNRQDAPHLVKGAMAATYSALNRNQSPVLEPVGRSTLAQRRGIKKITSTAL

STK32A(h) = biological target: T7, STK32A(h) (Homo sapiens, UniProt Q8WU08); details: read-out: Inhibition rate (%)
T7 construct: purchased Eurofins (KinaseProfiler)
T7 sequence (Q8WU08 whole entry): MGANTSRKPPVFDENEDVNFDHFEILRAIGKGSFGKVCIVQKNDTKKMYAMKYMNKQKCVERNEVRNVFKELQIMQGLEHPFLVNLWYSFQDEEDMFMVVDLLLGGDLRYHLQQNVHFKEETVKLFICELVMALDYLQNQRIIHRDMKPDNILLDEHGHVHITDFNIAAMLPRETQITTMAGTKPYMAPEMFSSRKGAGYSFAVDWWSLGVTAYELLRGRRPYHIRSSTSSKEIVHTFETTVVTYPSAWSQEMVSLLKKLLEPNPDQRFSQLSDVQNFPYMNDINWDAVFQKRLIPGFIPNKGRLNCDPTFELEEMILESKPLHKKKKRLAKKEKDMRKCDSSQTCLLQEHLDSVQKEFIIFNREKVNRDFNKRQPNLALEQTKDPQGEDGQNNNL

T1 sequence (P41240 whole entry): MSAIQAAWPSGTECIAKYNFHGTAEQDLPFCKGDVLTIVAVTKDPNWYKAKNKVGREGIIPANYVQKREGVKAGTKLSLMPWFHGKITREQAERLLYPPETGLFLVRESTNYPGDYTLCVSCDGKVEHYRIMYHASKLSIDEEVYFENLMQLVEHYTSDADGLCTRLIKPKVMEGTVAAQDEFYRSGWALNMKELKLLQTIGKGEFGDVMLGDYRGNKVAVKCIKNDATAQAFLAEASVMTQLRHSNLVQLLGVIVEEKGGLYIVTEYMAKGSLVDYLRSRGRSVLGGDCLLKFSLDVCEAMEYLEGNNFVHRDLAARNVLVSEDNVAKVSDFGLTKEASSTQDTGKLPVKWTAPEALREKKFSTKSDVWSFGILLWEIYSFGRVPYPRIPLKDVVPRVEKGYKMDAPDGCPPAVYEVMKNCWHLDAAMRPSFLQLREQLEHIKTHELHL

`COc1cc(OC)c(Cl)c(-c2ccc3c(NC(=O)c4ccc(N5CCNC(C)(C)C5)cc4)n[nH]c3n2)c1Cl` [3D185] gave an inhibition at 0.01 µM (CSK(h); 10 nM) of 8%, an inhibition at 0.1 µM (CSK(h); 100 nM) of 23% and an inhibition at 1 µM (CSK(h); 1000 nM) of 63%. For the same compound, the inhibition at 0.01 µM (DCAMKL3(h); 10 nM) was 5%, the inhibition at 0.1 µM (DCAMKL3(h); 100 nM) was 7% and the inhibition at 1 µM (DCAMKL3(h); 1000 nM) was 16%. For the same compound, the inhibition at 0.01 µM (FGFR4(h); 10 nM) was 43%, the inhibition at 0.1 µM (FGFR4(h); 100 nM) was 91% and the inhibition at 1 µM (FGFR4(h); 1000 nM) was 100%. For the same compound, the IC50 (Fms(h); CSF-1R, estimated from 372-kinase panel) was less than 10 nM, the inhibition at 0.01 µM (Fms(h); read-out: Inhibition rate (%)) was 75% and the inhibition at 0.1 µM (Fms(h); read-out: Inhibition rate (%)) was 93%. It also gave an inhibition at 1 µM (Fms(h); read-out: Inhibition rate (%)) of 96%, an inhibition at 0.01 µM (NEK9(h); 10 nM) of -12% and an inhibition at 0.1 µM (NEK9(h); 100 nM) of -6%. The inhibition at 1 µM (NEK9(h); 1000 nM) was 14%, the inhibition at 0.01 µM (PDGFRβ(h); 10 nM) was 1% and the inhibition at 0.1 µM (PDGFRβ(h); 100 nM) was -1%. For the same compound, the inhibition at 1 µM (PDGFRβ(h); 1000 nM) was 17%, the inhibition at 0.01 µM (Rsk2(h); 10 nM) was -19% and the inhibition at 0.1 µM (Rsk2(h); 100 nM) was 0%. For the same compound, the inhibition at 1 µM (Rsk2(h); 1000 nM) was 24%, the inhibition at 0.01 µM (STK32A(h); 10 nM) was -5% and the inhibition at 0.1 µM (STK32A(h); 100 nM) was 0%. The inhibition at 1 µM (STK32A(h); 1000 nM) was 2%.
